We go through one molecule from article PMC10218905, “Improving the Enzymatic Activity and Stability of a Lytic Polysaccharide Monooxygenase” (International Journal of Molecular Sciences, 2023).

Experiment in all cases: spectrophotometric oxidation assay at […] nm
Holding throughout (format): biochemical
Common to all, as to conditions: 100 µM H2O2 co-substrate, copper-loaded enzyme, 100 mM sodium acetate pH 6.0, 30 °C; read-out: Km app

For assay [1], the target named is T1, BaLPMO10A (Bacillus velezensis, UniProt A7Z541).
T1 construct: gene RBAM_017540; mature enzyme with native N-terminus; N-terminal SUMO tag cleaved, C-terminal 6xHis tag; pET-20b, E. coli BL21(DE3); copper-saturated

The target of assay [2] is T2, BaLPMO10A (Bacillus velezensis, UniProt A7Z541, I31V/E151D, form not given).
T2 construct: gene RBAM_017540; mature enzyme with native N-terminus; N-terminal SUMO tag cleaved, C-terminal 6xHis tag; pET-20b, E. coli BL21(DE3); copper-saturated

Assay [3] addresses T3, BaLPMO10A (Bacillus velezensis, UniProt A7Z541, V67L, form not given).
T3 construct: gene RBAM_017540; mature enzyme with native N-terminus; N-terminal SUMO tag cleaved, C-terminal 6xHis tag; pET-20b, E. coli BL21(DE3); copper-saturated

Assay [4] has as its target T4, BaLPMO10A (Bacillus velezensis, UniProt A7Z541, V67L/E151D, form not given).
T4 construct: gene RBAM_017540; mature enzyme with native N-terminus; N-terminal SUMO tag cleaved, C-terminal 6xHis tag; pET-20b, E. coli BL21(DE3); copper-saturated

Each structure is given as a SMILES string.

T3 sequence (A7Z541 entry or part of it V67L, form open): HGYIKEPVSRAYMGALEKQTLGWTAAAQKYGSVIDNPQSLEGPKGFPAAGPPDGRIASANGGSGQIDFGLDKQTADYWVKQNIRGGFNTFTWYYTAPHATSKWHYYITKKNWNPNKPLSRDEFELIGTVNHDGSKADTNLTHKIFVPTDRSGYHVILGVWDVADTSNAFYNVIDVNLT
T4 sequence (A7Z541 entry or part of it V67L/E151D, form open): as the sequence (A7Z541 entry or part of it V67L, form open) above, with E124D counted along it
T2 sequence (A7Z541 entry or part of it I31V/E151D, form open): as the sequence (A7Z541 entry or part of it V67L, form open) above, with I4V, L40V, E124D counted along it
T1 sequence (A7Z541 entry or part of it): as the sequence (A7Z541 entry or part of it V67L, form open) above, with L40V counted along it

As a reminder, the Km is the substrate concentration at which the rate is half of its maximum. For `COc1cccc(OC)c1O` [2,6-DMP, 2,6-Dimethoxyphenol], the Km came out at 41.3 ± 7.33 mM at BaLPMO10A [1], 95.5 ± 9.5 mM at BaLPMO10A [2], 32.5 ± 3.6 mM on BaLPMO10A [3] and 33.5 ± 1.6 mM at BaLPMO10A [4].
